As a reminder, the IC50 is the concentration at which inhibition is half-maximal.

The target of the assay is Rho-associated protein kinase 1 (Homo sapiens, UniProt Q13464). As to the kind of experiment: In Vitro Assay. How it is done: Compounds were dissolved in DMSO so that the final concentration of DMSO was <2%, and the reaction was initiated with Rho kinase variants. After incubation, the reaction was terminated by the addition of EDTA and the phosphorylated and non-phosphorylated peptides separated using a LABCHIP 3000 Reader (Caliper Life Sciences). […] Compounds were tested in dose-response format, and the inhibition of kinase activity was calculated at each concentration of compound.
Rho-associated protein kinase 1, sequence (Q13464 whole entry): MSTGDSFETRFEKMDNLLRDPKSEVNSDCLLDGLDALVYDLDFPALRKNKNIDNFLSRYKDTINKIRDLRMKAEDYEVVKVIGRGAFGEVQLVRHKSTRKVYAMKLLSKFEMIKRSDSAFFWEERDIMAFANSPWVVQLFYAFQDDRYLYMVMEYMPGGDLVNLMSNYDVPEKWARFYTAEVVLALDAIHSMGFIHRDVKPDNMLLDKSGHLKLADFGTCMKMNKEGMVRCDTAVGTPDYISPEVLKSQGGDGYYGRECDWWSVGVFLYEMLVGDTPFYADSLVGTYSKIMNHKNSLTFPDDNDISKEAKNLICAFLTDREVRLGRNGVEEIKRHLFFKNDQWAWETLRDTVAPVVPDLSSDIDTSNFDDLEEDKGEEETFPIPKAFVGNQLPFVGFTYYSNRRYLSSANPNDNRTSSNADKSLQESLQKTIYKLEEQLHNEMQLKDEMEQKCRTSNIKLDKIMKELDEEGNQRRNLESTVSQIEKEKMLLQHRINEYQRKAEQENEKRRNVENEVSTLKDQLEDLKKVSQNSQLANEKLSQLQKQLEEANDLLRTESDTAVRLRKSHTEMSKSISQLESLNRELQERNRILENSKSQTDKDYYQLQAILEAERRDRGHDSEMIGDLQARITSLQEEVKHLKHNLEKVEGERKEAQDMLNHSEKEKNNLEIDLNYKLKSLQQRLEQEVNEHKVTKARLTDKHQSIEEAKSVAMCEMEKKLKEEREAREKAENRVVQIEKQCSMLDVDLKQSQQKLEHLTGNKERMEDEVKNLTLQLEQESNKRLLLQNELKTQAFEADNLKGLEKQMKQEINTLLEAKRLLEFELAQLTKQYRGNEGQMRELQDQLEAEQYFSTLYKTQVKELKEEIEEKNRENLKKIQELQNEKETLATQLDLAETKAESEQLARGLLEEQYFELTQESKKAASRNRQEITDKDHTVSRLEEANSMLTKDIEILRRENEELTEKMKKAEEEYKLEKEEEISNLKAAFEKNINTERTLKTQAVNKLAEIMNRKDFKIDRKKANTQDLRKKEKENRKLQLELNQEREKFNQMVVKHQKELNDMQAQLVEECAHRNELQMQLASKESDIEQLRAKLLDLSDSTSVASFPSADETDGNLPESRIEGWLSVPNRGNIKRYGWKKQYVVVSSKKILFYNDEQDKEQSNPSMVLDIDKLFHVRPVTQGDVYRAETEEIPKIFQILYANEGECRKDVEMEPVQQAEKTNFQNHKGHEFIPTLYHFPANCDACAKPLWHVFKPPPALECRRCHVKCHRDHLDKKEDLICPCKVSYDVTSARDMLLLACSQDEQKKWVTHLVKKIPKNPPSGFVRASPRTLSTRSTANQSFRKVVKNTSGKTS
Compound `O=C(Nc1ccc(-c2n[nH]c(=O)c3ccccc23)cc1)c1cc2ncccn2n1` [US9926282, Example 102] came in with an IC50 of less than 100 nM. In turn, `O=C(Nc1ccc(-c2n[nH]c(=O)c3ccccc23)cc1)c1c[nH]c2ncc(F)cc12` [US9926282, Example 120] showed an IC50 of less than 100 nM. With `CCc1c(C(=O)Nc2ccc(-c3n[nH]c(=O)c4ccccc34)cc2)nnn1-c1cccc(Cl)c1` [US9926282, Example 225], the IC50 was less than 100 nM. To `O=C(Nc1ccc(-c2n[nH]c(=O)c3ccccc23)c(Cl)c1)c1nn(CC2CNC2)c2ccccc12` [US9926282, Example 327] belongs less than 100 nM. Next, `O=C(Nc1ccc(-c2n[nH]c(=O)c3ccccc23)cc1)c1nn(CC2CCNCC2)c2ccccc12` [US9926282, Example 342]: less than 100 nM. Next, `O=C(Nc1ccc(-c2n[nH]c(=O)c3ccccc23)cc1)c1cnn(C2CCCCC2)c1` [US9926282, Example 373]: less than 100 nM; `O=C(Nc1ccc(-c2n[nH]c(=O)c3ccccc23)cc1)c1cnn(C2CCCC2)c1` [US9926282, Example 374]: less than 100 nM; `O=C(Nc1ccc(-c2n[nH]c(=O)c3ccccc23)cc1)c1cnn(CC(O)C(F)(F)F)c1` (centres undefined) [US9926282, Example 378]: less than 100 nM. `CCCn1cc(C(=O)Nc2ccc(-c3n[nH]c(=O)c4ccccc34)cc2)cn1` [US9926282, Example 382] showed an IC50 of less than 100 nM.

These data come from BindingDB's records for patent US9926282 (Bristol-Myers Squibb, 2018).
